Results reported in US20160279187A1, “CALPAIN INHIBITORS FOR IBD AND COLORECTAL CANCER TREATMENT” (UNIVERSITY OF HAWAII, priority 2013, published 2016).
Where a SMILES comes first, the peptide text is derived from it. The star is where a group is joined. Cbz = O=C(OCc1ccccc1)*; CH2F = FC*

Tests used:
[1] = test system: Akt phosphorylation / FAK cleavage in macrophages; experiment: other m-calpain regulated pathways in macrophages (Akt, FAK); format: cell-based
[2] = test system: Akt phosphorylation / FAK cleavage in colon cancer cells; experiment: other m-calpain regulated pathways in colon cancer cells (Akt, FAK); format: cell-based
μ-calpain = biological target: T1, μ-calpain (Homo sapiens, UniProt P07384); conditions: off-target; cited from earlier work
T1 sequence (P07384 1-714): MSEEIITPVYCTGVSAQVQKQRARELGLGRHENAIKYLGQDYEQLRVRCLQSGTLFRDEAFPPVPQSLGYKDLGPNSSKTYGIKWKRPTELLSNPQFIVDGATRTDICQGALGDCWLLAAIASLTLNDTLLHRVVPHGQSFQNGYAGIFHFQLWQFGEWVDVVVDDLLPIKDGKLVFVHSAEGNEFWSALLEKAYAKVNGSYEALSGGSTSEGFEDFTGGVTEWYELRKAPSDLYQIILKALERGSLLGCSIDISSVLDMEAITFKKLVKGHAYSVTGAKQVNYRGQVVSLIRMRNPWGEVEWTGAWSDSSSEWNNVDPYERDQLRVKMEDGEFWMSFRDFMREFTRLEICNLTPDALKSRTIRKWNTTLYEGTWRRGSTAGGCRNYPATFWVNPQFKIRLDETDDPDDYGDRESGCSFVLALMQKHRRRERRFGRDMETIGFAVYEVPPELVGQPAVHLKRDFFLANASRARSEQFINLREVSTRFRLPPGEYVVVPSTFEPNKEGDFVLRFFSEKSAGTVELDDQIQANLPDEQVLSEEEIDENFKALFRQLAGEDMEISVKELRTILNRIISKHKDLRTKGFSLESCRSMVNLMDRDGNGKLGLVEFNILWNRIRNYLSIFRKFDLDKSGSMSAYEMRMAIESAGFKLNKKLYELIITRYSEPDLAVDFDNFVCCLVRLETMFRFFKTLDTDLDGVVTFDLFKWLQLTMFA

[3] = test system: cytokine mRNAs in colon tissues; experiment: AOM/DSS model, colon cytokine mRNA by real-time PCR; format: in vivo, mice; conditions: day 63, vs vehicle control
Procedure: Mice subjected to the AOM/DSS model were sacrificed on day 63 and colons removed and assessed by histology and cytokine mRNA analyses. […] To further assess inflammation, mouse colon tissues were harvested at the end of the chronic colitis model and mRNA levels for different cytokines measured by real-time PCR.
To determine if a similar mechanism may be contributing to the effect of the calpain-2 inhibition in the DSS model of colitis, macrophages were analyzed for NFκB activation and inflammatory cytokine secretion. Bone marrow derived macrophages were primed […] with TNFα (20 ng/ml) and activated with E. faecalis (1 μg/ml) for 1 h in the presence or absence of calpain-2 inhibitor (20 μg/ml). Supernatants were evaluated for a panel of cytokines including IFNγ, TNFα, IL-6, and MCP-1, IL-10, and IL-12. Real-time PCR was performed on total RNA extracted from colon tissues to access levels of cytokines. Media was collected from wells and cytokines assessed by CBA kit (BD Biosciences). For IκB blotting cells were lysed and SDS-PAGE was performed. Membranes were stained with anti-IκB (Cell Signalling) and anti-βactin (Santa Cruz). For NfκB blotting an NFκB Activation Kit (Five Photon) was used to isolate nuclear fractions. These fractions were transferred using SDS-PAGE. The membranes were stained with anti-NFκB (Santa Cruz) or anti-TATA (Abcam). Data are mean±SE (n=3) and represent results from three independent experiments. *p<0.05; one way ANOVA followed by Tukey post-test. […] Importantly, those cytokines most affected by the calpain-2 are regulated by NFκB.

CC(C)C[C@H](NC(=O)OCc1ccccc1)C(=O)N[C@@H](CC(C)C)C(=O)N[C@@H](Cc1ccc(O)cc1)C(=O)CF [zLLY-CH2F, Z-LLY-CH2F] (Cbz-Leu-Leu-Tyr-CH2F)
FAK cleavage [1]: major effect
phosphorylation of Akt [1]: inhibited
FAK cleavage [2]: not apparent
phosphorylation of Akt [2]: inhibited
inhibition of μ-calpain (μ-calpain): not known to inhibit
IFNγ mRNA level in colon [3]: not significantly different
IL-6 mRNA level in colon [3]: lowered
MCP-1 mRNA level in colon [3]: lowered
TNFα mRNA level in colon [3]: lowered
